Test results from ChEMBL document CHEMBL1145050, “Discovery of (3S)-amino-(4R)-ethylpiperidinyl quinolones as potent antibacterial agents with a broad spectrum of activity and activity against resistant pathogens” (J Med Chem, 2003).
pIC50: −log10 of the molar value. Values after ≈ are worked out from the molar mass of the structure shown.

Experiments:
[1] = test system: Streptococcus pneumoniae; test: Minimum inhibitory concentration against Streptococcus pneumoniae - penicillin resistant, strain STP51; format: functional
[2] = test system: Staphylococcus aureus; test: Minimum inhibitory concentration against Staphylococcus aureus - methicillin resistant Ciprofloxacin sensitive strain MI300; format: functional
[3] = test system: Escherichia coli; test: Minimum inhibitory concentration against Escherichia coli, strain ES142; format: functional
[4] = test system: Streptococcus pneumoniae; test: Minimum inhibitory concentration against Streptococcus pneumoniae - penicillin sensitive, strain STP64; format: functional
[5] = test system: Pseudomonas aeruginosa; test: Minimum inhibitory concentration against Pseudomonas aeruginosa, strain PS96; format: functional
[6] = target: T1, DNA gyrase (Escherichia coli, UniProt P0AES4+P0AES6); test: Inhibition of Quinolone resistant gyrase Supercoiling Activity in Escherichia coli; format: protein-complex assay
[7] = target: T1, DNA gyrase; test: Inhibition of Wild Type DNA gyrase Supercoiling Activity in Escherichia coli; format: protein-complex assay
[8] = test system: Staphylococcus aureus; test: Minimum inhibitory concentration against Staphylococcus aureus - methicillin resistant Ciprofloxacin resistant, strain MI339; format: functional
[9] = test system: Streptococcus pneumoniae; test: Minimum inhibitory concentration against Streptococcus pneumoniae (Penicillin resistant) strain STP51; format: functional
[10] = test system: Staphylococcus aureus; test: Minimum inhibitory concentration against Staphylococcus aureus (Methicillin resistant Ciprofloxacin sensitive) strain MI300; format: functional
[11] = test system: Streptococcus pneumoniae; test: Minimum inhibitory concentration against Streptococcus pneumoniae (Penicillin sensitive) strain STP64; format: functional
[12] = test system: Staphylococcus aureus; test: Minimum inhibitory concentration against Staphylococcus aureus (Methicillin resistant Ciprofloxacin resistant) strain MI339; format: functional

SMILES | MIC [1] [µg/mL] | MIC [2] [µg/mL] | MIC [3] [µg/mL] | MIC [4] [µg/mL] | MIC [5] [µg/mL] | pIC50 [6] | pIC50 [7] | MIC [8] [µg/mL] | MIC [9] [µg/mL] | MIC [10] [µg/mL] | MIC [11] [µg/mL] | MIC [12] [µg/mL]
CC[C@@H]1CCN(c2c(F)cc3c(=O)c(C(=O)O)cn(C4CC4)c3c2OC)C[C@H]1N | 0.008 (≈ 0.0198 µM) | 0.008 (≈ 0.0198 µM) | 0.016 (≈ 0.0397 µM) | 0.031 (≈ 0.0768 µM) | 1 (≈ 2.48 µM) | 4.80 | 5.10 | 0.125 (≈ 0.31 µM) | – | – | – | –
COc1c(N2CCNC(C)C2)c(F)cc2c(=O)c(C(=O)O)cn(C3CC3)c12 (stereo not given) [GATIFLOXACIN] | – | 0.06 (≈ 0.16 µM) | 0.015 (≈ 0.04 µM) | 0.12 (≈ 0.32 µM) | 0.12 (≈ 0.32 µM) | – | – | 4 (≈ 10.7 µM) | – | – | – | –
COc1c(N2CC[C@@H]([C@@H](C)N)C2)c(F)cc2c(=O)c(C(=O)O)cn(C3CC3)c12 | 0.008 (≈ 0.0205 µM) | 0.008 (≈ 0.0205 µM) | 0.008 (≈ 0.0205 µM) | 0.008 (≈ 0.0205 µM) | 0.25 (≈ 0.642 µM) | – | – | 0.016 (≈ 0.0411 µM) | – | – | – | –
N[C@H]1CCCN(c2nc3c(cc2F)c(=O)c(C(=O)O)cn3C2CC2)C1 | 4 (≈ 11.5 µM) | 2 (≈ 5.77 µM) | 0.125 (≈ 0.361 µM) | 4 (≈ 11.5 µM) | 1 (≈ 2.89 µM) | < 3.53 | 5.34 | > 4 | – | – | – | –
CC[C@@H]1CCN(c2cc3c(cc2F)c(=O)c(C(=O)O)cn3C2CC2)C[C@H]1N | 0.375 (≈ 1 µM) | 0.094 (≈ 0.252 µM) | 0.012 (≈ 0.0321 µM) | 0.75 (≈ 2.01 µM) | 1.5 (≈ 4.02 µM) | – | – | > 3 | – | – | – | –
NC1CCN(c2c(F)cc3c(=O)c(C(=O)O)cn(C4CC4)c3c2Cl)C1 (stereo not given) [CLINAFLOXACIN] | 0.15 (≈ 0.41 µM) | 0.03 (≈ 0.082 µM) | 0.015 (≈ 0.041 µM) | 0.03 (≈ 0.082 µM) | 0.06 (≈ 0.164 µM) | 5.56 | 6.26 | 0.5 (≈ 1.37 µM) | – | – | – | –
CC[C@@H]1CCN(c2ccc3c(=O)c(C(=O)O)cn(C4CC4)c3c2Cl)C[C@H]1N | – | < 0.004 | < 0.004 | < 0.004 | 0.125 (≈ 0.321 µM) | 5.09 | 5.39 | 0.31 (≈ 0.795 µM) | – | – | – | –
O=C(O)c1cn(C2CC2)c2c(Cl)c(N3CCNCC3)ccc2c1=O | – | 0.25 (≈ 0.719 µM) | – | 4 (≈ 11.5 µM) | 0.5 (≈ 1.44 µM) | – | – | 8 (≈ 23 µM) | – | – | – | –
O=C(O)c1cn(C2CC2)c2cc(N3CCNCC3)c(F)cc2c1=O [CIPROFLOXACIN] | – | 0.25 (≈ 0.754 µM) | – | 0.25 (≈ 0.754 µM) | 0.12 (≈ 0.362 µM) | – | – | – | – | – | – | –
CC[C@H]1CCN(c2ccc3c(=O)c(C(=O)O)cn(C4CC4)c3c2OC)C[C@H]1N | 0.5 (≈ 1.3 µM) | 0.25 (≈ 0.649 µM) | 0.125 (≈ 0.324 µM) | 1 (≈ 2.59 µM) | 4 (≈ 10.4 µM) | – | – | 4 (≈ 10.4 µM) | – | – | – | –
CC[C@@H]1CCN(c2nc3c(cc2F)c(=O)c(C(=O)O)cn3C2CC2)C[C@H]1N | 2 (≈ 5.34 µM) | 0.25 (≈ 0.668 µM) | 0.03 (≈ 0.0801 µM) | 4 (≈ 10.7 µM) | 4 (≈ 10.7 µM) | < 3.56 | 4.17 | > 4 | – | – | – | –
COc1c(N2CCC[C@H](N)C2)c(F)cc2c(=O)c(C(=O)O)cn(C3CC3)c12 | 0.063 (≈ 0.168 µM) | 0.031 (≈ 0.0826 µM) | 0.031 (≈ 0.0826 µM) | 0.125 (≈ 0.333 µM) | 1 (≈ 2.66 µM) | 4.77 | 5.37 | 0.5 (≈ 1.33 µM) | – | – | – | –
N[C@H]1CCCN(c2ccc3c(=O)c(C(=O)O)cn(C4CC4)c3c2Cl)C1 | < 0.008 | 0.016 (≈ 0.0442 µM) | 0.03 (≈ 0.0829 µM) | 0.12 (≈ 0.332 µM) | 0.5 (≈ 1.38 µM) | 4.45 | 5.05 | 1 (≈ 2.76 µM) | – | – | – | –
COc1c(N2CCC[C@H](N)C2)ccc2c(=O)c(C(=O)O)cn(C3CC3)c12 | < 0.008 | < 0.06 | 0.03 (≈ 0.0839 µM) | 0.03 (≈ 0.0839 µM) | 0.5 (≈ 1.4 µM) | 4.45 | 4.75 | 1 (≈ 2.8 µM) | – | – | – | –
CC[C@@H]1CCN(c2c(F)cc3c(=O)c(C(=O)O)cn(C4CC4)c3c2F)C[C@H]1N | 0.012 (≈ 0.0307 µM) | 0.006 (≈ 0.0153 µM) | 0.006 (≈ 0.0153 µM) | 0.023 (≈ 0.0588 µM) | 0.75 (≈ 1.92 µM) | 4.49 | 6.29 | 0.188 (≈ 0.48 µM) | – | – | – | –
N[C@H]1CCCN(c2c(F)cc3c(=O)c(C(=O)O)cn(C4CC4)c3c2F)C1 | – | – | 0.03 (≈ 0.0826 µM) | – | 0.5 (≈ 1.38 µM) | – | – | – | 0.13 (≈ 0.358 µM) | 0.13 (≈ 0.358 µM) | 0.06 (≈ 0.165 µM) | 4 (≈ 11 µM)
CC[C@@H]1CCN(c2ccc3c(=O)c(C(=O)O)cn(C4CC4)c3c2OC)C[C@H]1N | 0.008 (≈ 0.0208 µM) | < 0.004 | 0.006 (≈ 0.0156 µM) | < 0.003 | 1 (≈ 2.59 µM) | 4.48 | 5.08 | 0.25 (≈ 0.649 µM) | – | – | – | –
